In patent publication US8557767B2, “Synthetic apolipoprotein E mimicking polypeptides and methods of use” (UAB Research Foundation, priority 2007, dated 2013):

Columns and labels:
human VLDL = conditions: cited from earlier work
[1] = system: atherogenic apo B-containing lipoproteins in human plasma; conditions: cited from earlier work
apo E null mice [2] = experiment: Plasma cholesterol in apo E null mice after i.v. 18L-2Y or R18L-2Y; type: in vivo; conditions: 100 ug i.v.
Description: Dual domain peptide that has LRKLRKRLLR (SEQ ID NO: 1), a sequence from apo E putative receptor binding domain, covalently linked to 18A (SEQ ID NO: 11) enhances uptake and degradation of apo B-containing lipoproteins. […] It has also been previously shown that that if the Lys residues are replaced by Arg, compared to the Lys-containing peptide, the resulting Arg-containing peptide has only 2% of lysis (Aikawa, M., et al. Circulation 106:1390-1396 2002). […] Rearrangement of the nonpolar face of 18L to incorporate aromatic residues at the center of the nonpolar face yields 18L-2. Addition of Tyr (for radiolabeling) yields 18L-2Y (FIG. 15). All of the Lys residues changed to Arg results in R18L2Y (FIG. 15).

apo E null mice [3] = experiment: Oral feeding of peptides in chow to apo E null mice: plasma cholesterol and aortic sinus lesion
Description: The peptides were mixed in normal chow (1 mg/4 g chow) and fed ad libitum.
The study was continued for 6 weeks.

apo E null mice [4] = experiment: Plasma cholesterol in apo E null mice after i.v. dual-domain peptides; type: in vivo; conditions: iv, n=4
Description: The peptides represented are Ac-hE-18A-NH2, Ac-hE4F-NH2, and Ac-hE-Sc2F-NH2. Peptides Ac-hE-18A-NH2, Ac-hE-4F-NH2 and Ac-hE-Sc18A were administered (i.v.) to apo E null mice (n=4) and plasma cholesterol values were determined at before administration (0 min), 5 min and 2 h after administration.
As described above, peptides Ac-hE-18A-NH2, Ac-hE-4F-NH2 and Ac-hE-Sc18A were administered (iv) to apo E null mice (n=4) and plasma cholesterol values were determined at before administration (0 min), 5 min and 2 h after administration.

HepG2 cells = experiment: Apo A-I / prebeta-HDL secretion by HepG2 cells; type: cell-based; conditions: for prebeta-HDL production: equal amount on weight basis (50 ug/ml), first overnight incubation; for prebeta-HDL amount after second and third overnight incubation: fresh cell medium without peptide

Substance | association with atherogenic apo B-containing lipoproteins [1] | prebeta-HDL production (HepG2 cells) | prebeta-HDL amount after second and third overnight incubation (HepG2 cells) | also measured
Ac-18A-NH2: control peptide; end protected 18A (DWLKAFYDKVAEKLKEAF) (Ac-DWLKAFYDKVAEKLKEAF-NH2) [reference compound] | not |  |  | interaction with VLDL (human VLDL): displacement of apo E from VLDL
Ac-GFRRFLGSWARIYRAFVG-NH2 [R18L-2Y] |  |  |  | ability to clear plasma cholesterol (apo E null mice [2]): increased ability to clear plasma cholesterol compared to 18L-2Y; plasma cholesterol at end of 6 week feeding (apo E null mice [3]; 1 mg per 4 g chow): significantly reduced; atherosclerotic lesion formation, aortic sinus, Oil Red O (apo E null mice [3]; 1 mg per 4 g chow, 6 weeks, four week old female mice): significantly less lesion formation; plasma cholesterol levels at 15 days and 30 days (apo E null mice [3]; 1 mg/4 g of chow per animal per day, n=5): significant decrease
Ac-hE-4F-NH2: dual-domain cationic peptide, hE linked to 4F, end protected (Ac-LRKLRKRLLRDWFKAFYDKVAEKFKEAF-NH2) |  | produced preβ-HDL | produced significant amounts | reduction in plasma cholesterol levels at 2 h time point (apo E null mice [4]): large reduction
DWFKAFYDKVAEKFKEAF [4F, reference compound] |  | produced preβ-HDL | levels similar to that of control cell medium | 
LRKLRKRLLR | not |  |  | 
